In US7999126B2, “Palladium(0)-dibenzylidene acetone complexes” (priority 2007, dated 2011):

Assay: Solubility Test: CHCl3-insoluble residue of the product
Type: physicochemical
Conditions: 1.00 g product in 150 ml chloroform
Description: 1.00 g of the product are dissolved in 150 ml of chloroform and stirred at room temperature for 30 minutes. The solution is then aspirated through a membrane filter. The filter is washed with 30 ml of water and 30 ml of acetone and subsequently dried over night at 45° C. in vacuo.
1.00 g of the product were dissolved in 150 ml of chloroform and stirred for 30 minutes at room temperature. The solution was aspirated through a membrane filter. The filter was washed with 30 ml of water and 30 ml of acetone and subsequently dried over night at 45° C. in vacuo.
1.00 g of the product were dissolved in 150 ml of chloroform and stirred for 30 minutes at room temperature. The solution was aspirated through a membrane filter. The filter was washed with 30 ml of water and 30 ml of acetone, and the filter was subsequently dried over night at 45° C. in vacuo.

## O=C(/C=C/c1ccccc1)/C=C/c1ccccc1.O=C(/C=C/c1ccccc1)/C=C/c1ccccc1.[Pd] [Experiment 1, Pd(dba)2]
Room temperature
  CHCl3-insoluble ingredients: 0%
Stirred 30 minutes at room temperature, membrane filter, filter dried
  residue (Solubility Test): 0%
